Reference: patent publication US20250222009A1, “DINUCLEAR GOLD(I) COMPLEXES FOR TREATING CANCER” (KING FAHD UNIVERSITY OF PETROLEUM AND MINERALS, priority 2024, published 2025)

Tests used:
[1] = system: A2780cis (cisplatin-resistant clone of A2780); assay: MTT cytotoxicity assay, A2780cis; format: cell-based, human
Experimental: (§1) The human epithelial ovarian cancer A2780 cell line and its cisplatin-resistant clone A2780cis were obtained from Sigma-Aldrich (Milano, Italy). A2780cis cells were continuously exposed to 1 μM cisplatin to maintain cisplatin resistance. A549 cells (Human non-small cell lung cancer), MCF7 (metastatic breast cancer), PC3 (highly aggressive metastatic prostate cancer), and MG63 (osteosarcoma) were obtained from the American Type Culture Collection (ATCC). Cells were authenticated in laboratory using the PowerPlex 16 HS System. A2780, A2780cis, and PC3 cells were cultured in RPMI-1640 medium; MG63 and MCF7 cells were cultured in DMEM, and A549 cells were cultured in F12 NUT-MIX. The culture medium contained about 10% fetal bovine serum (FBS) (Gibco, Thermo Fisher Scientific, Monza, Italy), about 1% (v/v) of penicillin (10,000 units/mL)-streptomycin (10 mg/mL), and about 1% (v/v) L-glutamine (200 mM) (all from Sigma-Aldrich). Cells were cultured at 37° C. in a 5% CO2, fully humidified atmosphere.
(§2) 2.5×10^3 (PC3, MG63, MCF7) or 4.0×10^3 (A2780, A2780cis, A549) cells were seeded in 96-well microplates in 100 μL culture medium. Cells, allowed to adhere for 24 h, were then treated in triplicate with increasing concentrations of gold compounds. Cisplatin was included as a reference drug. Cell viability was evaluated using 3-(4,5-dimethylthiazol-2-yl)-2,5-diphenyltetrazolium bromide (MTT) assay (Sigma-Aldrich) after 72 h of treatment. Half maximal inhibitory concentrations (IC50), IC25, and IC75 were calculated using the CalcuSyn software version 2 (Biosoft, Ferguson, MO, USA) (See: Chou, T. C.; Talalay, P. Quantitative Analysis of Dose-Effect Relationships: The Combined Effects of Multiple Drugs or Enzyme Inhibitors. Adv. Enzyme Regul. 1984, 22, 27-55, which is incorporated herein by reference in its entirety). Fold resistance was calculated as the ratio of the IC50 of the A2780cis to that of the parental cell line A2780. Alternatively, cell viability was assayed by crystal violet staining (See: Feoktistova, M.; Geserick, P.; Leverkus, M. Crystal Violet Assay for Determining Viability of Cultured Cells. Cold Spring Harb Protoc 2016, 2016, pdb.prot087379, which is incorporated herein by reference in its entirety). Alternatively, after drug treatment, the culture Medium was removed, cells washed, fixed, and stained, and the Crystal Violet solution lasted 20 minutes (See: Sulaiman, A. A. A.; Casagrande, N.; Borghese, C.; Corona, G.; Isab, A. A.; Ahmad, S.; Aldinucci, D.; Altaf M. Design, Synthesis, and Preclinical Activity in Ovarian Cancer Models of New Phosphanegold(I)—N-Heterocyclic Carbene Complexes. J Med Chem 2022, 65, 14424-14440, which is incorporated herein by reference in its entirety).

ALDH1 = ALDH1 enzymatic activity (Aldeflour), flow cytometry; format: cell-based, human; details: A549, 24 h
Experimental: (§3) 2.0×10^5 A549 cells were seeded in 6-well plates in a complete medium and treated with the complex 3. Assay results were detected by flow cytometry on a BD FACSCanto II flow cytometer. Data were analyzed using BD FACSDiva v.8.0.1 software (BD Biosciences) unless otherwise indicated. Tumor cells were treated for 72 h with complex 3, then stained for 15 minutes with FITC Annexin-V (Thermo Fisher Scientific) and 7AAD (BD Pharmingen, Milan, Italy). Activated caspase-3,7 was detected using the CaspaTag Caspase-3,7 assay (Merck Millipore) after an incubation of 24 h with complex 3. For B-cell lymphoma/leukemia-2 protein (Bcl-2) and Bcl-2 associated x protein (Bax) analysis, cells were treated for 72 h with C3, then fixed and permeabilized (FIX & PERM Cell Fixation & Cell Permeabilization Kit, Life Technologies). […] The distribution of cells in different cell cycle phases was quantified using ModFit LT 4.0 software (Verity Software House, Topsham, ME, USA) (See: Sulaiman, A. A. A.; Casagrande, N.; Borghese, C.; Corona, G.; Isab, A. A.; Ahmad, S.; Aldinucci, D.; Altaf M. Design, Synthesis, and Preclinical Activity in Ovarian Cancer Models of New Phosphanegold(I)—N-Heterocyclic Carbene Complexes. J Med Chem 2022, 65, 14424-14440, which is incorporated herein by reference in its entirety). […]

A549 cells [2] = assay: Mitochondrial ROS generation (MitoSOX Red); format: cell-based, human; details: A549, 48 h
Experimental: as §3

Bcl-2 = Bcl-2 expression, flow cytometry; format: cell-based, human; details: A549, 72 h
Experimental: as §3

MCF-7 (breast cancer) = assay: MTT cytotoxicity assay, MCF-7; format: cell-based; details: 72 h, mean, SD in next cell
Experimental: as §1, §2

NOTCH1 = NOTCH1 surface expression, flow cytometry; format: cell-based, human; details: A549, 24 h
Experimental: as §3

A549 cells [3] = assay: Annexin-V-FITC/7AAD apoptosis, flow cytometry; format: cell-based, human; details: A549, 72 h, 0.06-0.60 μM
Experimental: as §3

For CC(C)c1cccc(C(C)C)c1-n1ccn(-c2c(C(C)C)cccc2C(C)C)[c]1=[Au-][P+](CCNCC[P+]([Au-]=[c]1n(-c2c(C(C)C)cccc2C(C)C)ccn1-c1c(C(C)C)cccc1C(C)C)(C1CCCCC1)C1CCCCC1)(C1CCCCC1)C1CCCCC1 [Complex 3, [(Au(IPr))2(C28H24P2)](PF6)2], the “Fold resistance (A2780cis/A2780)” value ([1]; IC50 A2780cis/IC50 A2780) was 2.19, the IC50 ([1]; MTT, 72 h, mean, SD in next cell) was 240 nM and the ALDH1 enzymatic activity (ALDH1) was “reduced”. The “mitochondrial reactive oxygen species (mit-ROS)” value (A549 cells [2]) was “increased”, the “anti-apoptotic BCL-2 expression” value (Bcl-2) was “down-regulated” and the IC50 (MCF-7 (breast cancer)) was 430 nM. For the same compound, the NOTCH1 expression (NOTCH1) was “decreased in a dose-dependent manner”, the “percentage of Annexin-V-positive cells (early apoptosis)” value (A549 cells [3]) was “increased in a dose-dependent manner” and the “percentage of double stained Annexin-V/7AAD-positive cells (late apoptosis)” value (A549 cells [3]) was “increased in a dose-dependent manner”.
